Legend:
Akt = experiment: Insulin-dependent phosphorylation of Akt in HepG2 cells (immunoblot); type: cell-based, human; details: 100 nM insulin
Procedure: Human hepG2 cells (ECACC) were cultivated in EMEM medium (Cambrex) with the addition of 10% fetal calf serum. 10^5 cells were seeded in 2 ml medium in 6 well plates and were cultivated at 37° C. in a moist atmosphere with 5% CO2 for 1 to 3 days, before being used for experiments.
The expression of IGFBP1 (insulin-like growth factor binding protein) is controlled by insulin via the forkhead box transcription factors O1A (FoxO1A) and O3A (FoxO3A). Following insulin stimulation, the protein kinase B/Akt (PKB/Akt) is activated via phosphorylation, based upon the phosphoinositide-3-kinase (PI3K), reaches the nucleus where it phosphorylates the transcription factor O1A (FoxO1A), which leads to a decrease in the gene expression of IGFBP1, for example.
For human HepG2 cells (ECACC), serum was removed from the medium for 90 minutes, the cells were incubated for another 60 minutes with 5 μM, 10 μM and 15 μM of the compound according to formula (9), 200 nM Wortmannin or DMSO (dimethylsulfoxide) at a corresponding concentration, after which the cells were stimulated for 10 minutes with 100 nM insulin. The cells were then lysed in lysate buffer (20 mM Tris-Cl, pH 7.5, 150 mM NaCl, 1 mM EDTA, 1 mM EGTA, 2.5 mM sodium pyrophosphate, 1 mM β-glycerophosphate, 1 mM sodium vanadate, 1% Triton X-100) and protease inhibitor mix HP (Serva).
Standardized quantities of protein were separated out using SDS-PAGE, and were transferred to nitrocellulose membranes. For protein identification via immunoblotting, an antibody was used against the phosphorylated protein Akt, pAkt (Thr308) (cell signaling). Visualization was carried out using the Enhanced Chemiluminescence System (Millipore) using a VersaDoc 5000 CCD camera (BioRad), and the intensity of the bands was quantified using the QuantityOne software (BioRad).

[1] = tested on: Drosophila eukaryotic initiation factor 4E binding protein (d4EBP, Thor); experiment: Transcription rate of insulin target gene d4EBP in insulin-treated Drosophila S2 cells (real-time PCR); type: cell-based; details: 100 μM compound, 10 μg/ml human insulin, insulin alone less than 35%
Procedure: Drosophila Schneider 2 (S2) cells were cultivated in Schneider's Medium (PAN company) with 10% heat-inactivated fetal calf serum (FCS). 2×10^6 cells were drawn into 35 mm vessels at 25° C. to 80% confluence, washed one time in phosphate buffered saline solution (1×PBS, Gibco), and transferred for twelve hours to Schneider's Medium, without FCS. The cells were then preincubated for two hours with 0.5% DMSO containing Schneider's Medium, without FCS, with or without the compound according to formula (9) or formula (25), with the final concentrations of the compounds according to formulas (9) and (25) being 1 μM, 10 μM and 100 μM. This was followed by a four-hour stimulation with 10 μg/ml human insulin (Sigma).
After washing the cells two times with PBS, total RNA was then isolated from the cells using the NucleoSpin RNA II Kit (Macherey & Nagel), according to the manufacturer's instructions. The first strain cDNA synthesis was performed with every 500 ng RNA, using the QuantiTect Reverse Transcription Kit (Qiagen), according to the manufacturer's instructions. […]
The activity of the insulin signaling pathway was determined from the transcription rate of the insulin target gene Drosophila eukaryotic initiation factor 4E binding protein (d4EBP, Thor). […]

## COc1nc(-c2ccc3c(c2)OCO3)n(-c2ccc(NC(=O)CSc3ccccc3)cc2)n1 [Compound (9)]
Akt; HepG2 cells, 10 μM compound
  reduction in the phosphorylation of Akt as compared with phosphorylation following insulin stimulation: 50%
Akt; HepG2 cells, 15 μM compound
  phosphorylation of Akt as % of the phosphorylation following insulin stimulation: approximately 25%
Akt; HepG2 cells, 5, 10, 15 μM compound, based upon concentration
  insulin-dependent phosphorylation of Akt: inhibited
[1]
  transcription rate of d4EBP as % of that of the untreated control groups: more than 85%

— patent publication US20100048594A1, “USE OF CYTOHESIN INHIBITORS FOR CHEMICALLY INDUCING LONGEVITY” (RHEINISCHE FRIEDRICH-WILHELMS UNIVERSITAT, priority 2006, published 2010)
